Results reported in BindingDB's records for doi:10.1021/jm000085e (Synaptic Pharmaceutical, 2000).

Assay: Binding affinity towards Alpha1D dog adrenergic receptors, using [125I]-HEAT as radioligand.

C[C@@H]1OC(=O)N(C(=O)NCCCN2CCC(c3ccc(F)cc3)CC2)[C@H]1c1ccc(F)c(F)c1 [4-(3,4-Difluoro-phenyl)-5-methyl-2-oxo-oxazolidine-3-carboxylic acid {3-[4-(4-fluoro-phenyl)-piperidin-1-yl]-propyl}-amide]
Ki: 133 nM
